This is an account of results in article PMC2409929 (British Journal of Cancer, 2004).

Like-named read-outs stand apart in the source and are kept apart here.

Data set [1] is described as follows: Population pharmacokinetics, plasma total irinotecan and SN-38 (HPLC, NONMEM), first course. Type of data set: in vivo. The note with it: human, iv. How it is done:
A pharmacokinetic evaluation was performed using a population approach; 88 patients from arms A, B and C were evaluated during the first course of treatment. The sampling strategy consisted of three different sampling schedules (with three sampling times in each): schedule 1: 30 min before the end of the infusion, 5 min and 3–4 h post-infusion; schedule 2: 30 min before the end of the infusion, 10 min and 5–7 h post-infusion; schedule 3: 5 min before the end of the infusion, 30 min and 20–24 h post-infusion. In a few cases, an additional sample was taken in schedules 1 and 2 after 24 h. All patients at one site were sampled according to the same schedule. The aim of the sampling strategy was to define the full kinetic profile over the whole population, by drawing a small number of samples at different times from a large number of patients.
Blood samples (5 ml) were collected in heparinised tubes and immediately immersed in ice-water. Plasma was obtained by centrifugation of the samples (5 min; 3000 r.p.m., 4°C) and stored at −20°C or lower until analysis. […] Pharmacokinetic parameters were determined by the Bayesian approach with the concentration–time data from each patient, and a population model previously defined.
Otherwise, they were analysed by nonparametric methods. […] All tests for significance were two-tailed.

Data set [2] relates to patients with colorectal cancer. To be noted: same schedule as arm A (350 mg m^−2 q3 weeks), cited from earlier work.
Setting [3] is: arm A, 350 mg m^−2 90-min i.v. infusion, N=30, mean±s.d.
[4] abbreviates: arm B, 125 mg m^−2 90-min i.v. infusion, N=28, mean±s.d.
Setting [5] is: arm C, 250 mg m^−2 90-min i.v. infusion, N=30, mean±s.d.

`CCc1c2c(nc3ccc(OC(=O)N4CCC(N5CCCCC5)CC4)cc13)-c1cc3c(c(=O)n1C2)COC(=O)[C@]3(O)CC` [irinotecan]: the AUC in data set [1] (setting [3]) came to 47.8 ± 19 µM·h; in data set [1] (setting [4]), 14.6 ± 6.9 µM·h; in data set [1] (setting [5]) it was 32.7 ± 13.5 µM·h. The Cmax amounted to 7.91 ± 1.1 µM in data set [1] (setting [3]), 2.62 ± 0.39 µM in data set [1] (setting [4]) and 5.52 ± 0.9 µM in data set [1] (setting [5]). In addition, the values for the Median survival in data set [2] (ref Cunningham et al (1998)) and in data set [2] (ref Rougier et al (1997)) were 9.2 months and 10.8 months, respectively.

A word on the AUC: it is the area under the concentration-time curve, a measure of exposure. A higher AUC goes with high exposure. Usually Cmax stands for the highest concentration seen after dosing.
